# Source: patent US20220365069A1, “ATP-BASED CELL SORTING AND HYPERPROLIFERATIVE CANCER STEM CELLS” (LUNELLA BIOTECH, INC., priority 2019, published 2022)
# Key:
# ATP-low MCF7 cells = assay: 3D-mammosphere assay, drug sensitivity of ATP-low MCF7 sub-population; format: cell-based, human
# Description: (§1) MCF7 cells in the ATP-high subpopulation show a multi-drug resistance phenotype. The 3D-mammosphere assay was used to explore the differential sensitivity of ATP-high and ATP-low MCF7 cell sub-populations to four different classes of drugs, using as a functional readout of drug-resistance. The drug classes include Tamoxifen, doxycycline, DPI, and Palbociclib.
# (§2) Flow Cytometry after Vital Staining with ATP-Red 1: Human breast cancer cell lines were first grown either as a 2D-monolayer or as 3D-spheroids. Then the cells were collected and dissociated into a single-cell suspension, prior to analysis or sorting by flow-cytometry with a SONY SH800 Cell Sorter. Briefly, ATP-high and ATP-low sub-populations of cells were isolated after vital staining with the probe ATP-Red 1. The ATP-high and ATP-low cell sub-populations were selected by gating, within the ATP-Red 1 signal. Unless otherwise stated, cells with the lowest (bottom 5% or 10%) fluorescent signal, or the highest (top 5% or 10%) fluorescent signal, were collected as ATP-low and ATP-high, respectively. The cells outside the gates were discarded during sorting, due to the gate settings. However, such settings are often required to ensure high-purity during sorting. Data were analyzed with FlowJo 10.1 software.
# (§3) 3D Anchorage Independent Growth Assay: A single cell suspension was prepared using enzymatic (lx Trypsin-EDTA, Sigma Aldrich, cat. #T3924), and manual disaggregation (25 gauge needle). Five thousand cells were plated with in mammosphere medium (DMEM-F12/B27/20ng/m1 EGF/PenStrep), under non-adherent conditions, in six wells plates coated with 2-hydroxyethylmethacrylate (poly-HEMA, Sigma, cat. #P3932). Cells were grown for 5 days and maintained in a humidified incubator at 37° C. at an atmospheric pressure in 5% (v/v) carbon dioxide/air. After 5 days, 3D spheroids with a diameter greater than 50 μm were counted using a microscope, fitted with a graticule eye-piece, and the percentage of cells which formed spheroids was calculated and normalized to one (1=100% MFE; mammosphere forming efficiency). Mammosphere assays were performed in triplicate and repeated three times independently.
# ATP-high MCF7 cells = assay: 3D-mammosphere assay, drug sensitivity of ATP-high MCF7 sub-population; format: cell-based, human
# Description: as §1, §2
# as §3, with “Mammosphere assays were performed in triplicate and repeated three times independently.” left out
structure (smiles),measurement,setting,value
"c1ccc2c(c1)[I+]c1ccccc1-2 [DPI, diphenyleneiodonium]",reduction of 3D-mammosphere formation,"ATP-low MCF7 cells; ATP-low cells, 100 nM",> 90%
same,reduction of 3D-mammosphere formation,"ATP-high MCF7 cells; ATP-high cells, 100 nM",~55%
CC(=O)c1c(C)c2cnc(Nc3ccc(N4CCNCC4)cn3)nc2n(C2CCCC2)c1=O [Palbociclib],reduction of 3D-mammosphere formation,"ATP-low MCF7 cells; ATP-low cells, 12.5 nM",~75%
same,reduction of 3D spheroid formation,"ATP-high MCF7 cells; ATP-high cells, 12.5 nM",-50%
CC/C(=C(\c1ccccc1)c1ccc(OCCN(C)C)cc1)c1ccccc1 [Tamoxifen],reduction of 3D-mammosphere formation,"ATP-low MCF7 cells; ATP-low MCF7 cells (bottom 5%), 1 μM",~40%
same,reduction of 3D-mammosphere formation,"ATP-low MCF7 cells; ATP-low MCF7 cells (bottom 5%), 5 μM",> 90%
same,"3D-mammosphere formation, of the vehicle-treated control levels","ATP-high MCF7 cells; ATP-high MCF7 cells (top 5%), 5 μM",> 80%
